# In patent US11878975B2, “Substituted indole compounds useful as TLR inhibitors” (BRISTOL-MYERS SQUIBB COMPANY, priority 2017, dated 2024):
# pIC50: −log10 of the molar value.
# Assays:
# Assay type in all cases: cell-based
# human TLR8 = target: T1, human TLR8 (Homo sapiens, UniProt Q9NR97); assay: TLR8 inhibition reporter assay (HEK-Blue cells, SEAP reporter, R848 stimulation); settings: HEK-Blue cells overexpressing human TLR8, SEAP reporter, R848 15.9 μM
# T1 construct: host or cells: HEK-Blue cells
# T1 sequence (Q9NR97 27-1041): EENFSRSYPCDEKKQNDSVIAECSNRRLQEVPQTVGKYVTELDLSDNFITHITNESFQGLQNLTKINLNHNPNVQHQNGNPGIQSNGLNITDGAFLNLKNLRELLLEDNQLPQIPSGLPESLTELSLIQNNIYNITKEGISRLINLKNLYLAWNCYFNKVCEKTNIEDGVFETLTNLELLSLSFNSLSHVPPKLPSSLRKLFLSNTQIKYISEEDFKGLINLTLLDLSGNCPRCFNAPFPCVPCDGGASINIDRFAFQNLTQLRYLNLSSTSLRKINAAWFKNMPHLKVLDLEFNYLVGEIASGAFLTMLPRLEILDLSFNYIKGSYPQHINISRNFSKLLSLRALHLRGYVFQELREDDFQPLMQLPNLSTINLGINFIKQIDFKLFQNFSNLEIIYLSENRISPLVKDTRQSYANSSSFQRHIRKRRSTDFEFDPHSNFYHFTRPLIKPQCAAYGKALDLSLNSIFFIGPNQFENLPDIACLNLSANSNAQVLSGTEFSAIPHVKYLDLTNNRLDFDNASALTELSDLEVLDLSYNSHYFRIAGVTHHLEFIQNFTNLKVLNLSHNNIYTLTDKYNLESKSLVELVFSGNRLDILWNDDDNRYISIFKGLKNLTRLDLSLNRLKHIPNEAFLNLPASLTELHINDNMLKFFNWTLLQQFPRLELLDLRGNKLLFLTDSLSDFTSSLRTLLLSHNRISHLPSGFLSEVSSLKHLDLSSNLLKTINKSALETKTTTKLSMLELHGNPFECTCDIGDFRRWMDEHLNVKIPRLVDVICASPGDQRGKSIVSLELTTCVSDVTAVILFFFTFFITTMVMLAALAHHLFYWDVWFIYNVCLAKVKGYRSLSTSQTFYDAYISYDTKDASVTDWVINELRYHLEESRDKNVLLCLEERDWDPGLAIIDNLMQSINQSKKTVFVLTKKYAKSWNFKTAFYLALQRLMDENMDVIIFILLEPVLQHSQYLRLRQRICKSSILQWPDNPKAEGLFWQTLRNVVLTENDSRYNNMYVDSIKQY
# In short: (§1)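 Dose range 0.05 nM–50 μM; 30 min preincubation, RT. Agonists: TLR7 gardiquimod 7.5 μM, TLR8 R848 15.9 μM, TLR9 ODN2006 5 nM. 22 h, 37 °C, 5% CO2. SEAP (IFN-β minimal promoter with NF-κB/AP-1 sites) via colorimetric detection medium; % inhibition vs agonist+DMSO and reference-inhibitor wells.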
# human TLR7 = target: T2, human TLR7 (Homo sapiens, UniProt Q9NYK1); assay: TLR7 inhibition reporter assay (HEK-Blue cells, SEAP reporter, gardiquimod stimulation); settings: HEK-Blue cells overexpressing human TLR7, SEAP reporter, gardiquimod 7.5 μM
# T2 construct: host or cells: HEK-Blue cells
# T2 sequence (Q9NYK1 27-1049): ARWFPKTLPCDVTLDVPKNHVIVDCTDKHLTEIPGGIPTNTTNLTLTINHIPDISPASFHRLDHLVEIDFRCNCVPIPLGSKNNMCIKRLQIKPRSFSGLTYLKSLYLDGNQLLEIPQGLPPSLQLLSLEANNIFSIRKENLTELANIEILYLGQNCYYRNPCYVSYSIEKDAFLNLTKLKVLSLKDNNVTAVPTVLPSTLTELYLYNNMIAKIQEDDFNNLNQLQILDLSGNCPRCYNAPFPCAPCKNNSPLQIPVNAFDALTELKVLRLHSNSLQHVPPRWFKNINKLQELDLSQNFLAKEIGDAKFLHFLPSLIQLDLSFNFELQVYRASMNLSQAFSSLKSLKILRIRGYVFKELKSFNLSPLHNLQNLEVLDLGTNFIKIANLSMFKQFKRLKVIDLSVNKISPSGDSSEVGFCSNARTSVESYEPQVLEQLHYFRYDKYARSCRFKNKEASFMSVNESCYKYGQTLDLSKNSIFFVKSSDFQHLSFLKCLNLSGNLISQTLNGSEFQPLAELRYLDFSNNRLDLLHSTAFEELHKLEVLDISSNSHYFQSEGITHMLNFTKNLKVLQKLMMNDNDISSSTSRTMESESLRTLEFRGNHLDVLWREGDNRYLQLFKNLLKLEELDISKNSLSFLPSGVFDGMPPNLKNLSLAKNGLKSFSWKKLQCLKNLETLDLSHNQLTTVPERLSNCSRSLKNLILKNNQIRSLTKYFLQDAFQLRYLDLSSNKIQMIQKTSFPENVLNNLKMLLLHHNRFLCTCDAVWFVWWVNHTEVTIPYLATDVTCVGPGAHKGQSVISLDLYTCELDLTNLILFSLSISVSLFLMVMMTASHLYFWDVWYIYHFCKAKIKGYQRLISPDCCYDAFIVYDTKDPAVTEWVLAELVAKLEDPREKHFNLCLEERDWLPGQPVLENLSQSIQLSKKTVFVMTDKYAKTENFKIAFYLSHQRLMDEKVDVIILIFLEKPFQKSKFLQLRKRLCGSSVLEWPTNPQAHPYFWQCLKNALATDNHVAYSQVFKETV
# In short: as §1
# human TLR9 = target: T3, human TLR9 (Homo sapiens, UniProt Q9NR96); assay: TLR9 inhibition reporter assay (HEK-Blue cells, SEAP reporter, ODN2006 stimulation); settings: HEK-Blue cells overexpressing human TLR9, SEAP reporter, ODN2006 5 nM
# T3 construct: host or cells: HEK-Blue cells
# T3 sequence (Q9NR96 26-1032): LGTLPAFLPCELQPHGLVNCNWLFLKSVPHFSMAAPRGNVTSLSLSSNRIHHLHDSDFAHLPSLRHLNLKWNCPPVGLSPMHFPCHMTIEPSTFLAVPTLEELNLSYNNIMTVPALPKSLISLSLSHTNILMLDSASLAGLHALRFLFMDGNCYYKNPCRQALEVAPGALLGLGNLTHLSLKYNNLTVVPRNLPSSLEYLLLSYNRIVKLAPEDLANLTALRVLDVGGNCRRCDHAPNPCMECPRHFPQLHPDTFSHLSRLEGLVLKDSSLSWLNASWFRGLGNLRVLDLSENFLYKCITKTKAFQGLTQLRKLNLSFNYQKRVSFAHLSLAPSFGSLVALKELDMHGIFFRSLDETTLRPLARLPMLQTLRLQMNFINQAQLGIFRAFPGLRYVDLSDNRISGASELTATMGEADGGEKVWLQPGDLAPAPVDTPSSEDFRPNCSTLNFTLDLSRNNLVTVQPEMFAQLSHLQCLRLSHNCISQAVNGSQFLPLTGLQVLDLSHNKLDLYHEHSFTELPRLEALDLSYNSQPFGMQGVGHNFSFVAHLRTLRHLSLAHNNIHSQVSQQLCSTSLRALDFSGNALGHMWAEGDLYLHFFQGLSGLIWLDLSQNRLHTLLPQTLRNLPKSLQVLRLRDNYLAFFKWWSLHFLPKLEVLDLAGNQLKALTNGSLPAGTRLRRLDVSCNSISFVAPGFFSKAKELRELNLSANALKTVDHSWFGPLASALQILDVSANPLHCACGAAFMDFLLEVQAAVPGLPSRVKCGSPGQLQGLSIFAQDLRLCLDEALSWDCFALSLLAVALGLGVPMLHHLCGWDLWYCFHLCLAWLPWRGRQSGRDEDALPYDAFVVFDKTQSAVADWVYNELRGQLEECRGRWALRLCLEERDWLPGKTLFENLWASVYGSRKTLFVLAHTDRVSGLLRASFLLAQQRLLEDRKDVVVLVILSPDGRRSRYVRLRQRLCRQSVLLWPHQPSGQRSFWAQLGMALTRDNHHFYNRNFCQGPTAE
# In short: as §1
Structure (SMILES),pIC50 (human TLR8),pIC50 (human TLR7),pIC50 (human TLR9)
"Cc1cc(-c2[nH]c3ccc(C4CCC(O)(C(F)(F)F)CC4)cc3c2C(C)C)cc(C)n1 (stereo not drawn) [Example 175, 4-(2-(2,6-dimethylpyridin-4-yl)-3-isopropyl-1H-indol-5-yl)-1-(trifluoromethyl)cyclohexanol]",6.92,7.43,5.67
"Cc1cc(-c2[nH]c3ccc(C4CCC(CN(C)C)CC4)cc3c2C(C)C)cc(C)n1 (stereo not drawn) [Example 176, 1-(4-(2-(2,6-dimethylpyridin-4-yl)-3-isopropyl-1H-indol-5-yl)cyclohexyl)-N,N-dimethylmethanamine]",7.26,7.59,5.05
"COc1cc(-c2[nH]c3ccc(C4CCCNC4)cc3c2C(C)C)cn2ncnc12 (stereo not drawn) [Example 181, 6-(3-isopropyl-5-(piperidin-3-yl)-1H-indol-2-yl)-8-methoxy-[1,2,4]triazolo[1,5-a]pyridine]",8.55,9.40,5.92
Cc1cc(-c2[nH]c3ccc(C4CCCNC4)cc3c2C(C)C)ccn1 (stereo not drawn) [Example 184],8.42,7.92,6.06
Cc1cc(-c2[nH]c3ccc(C4CCCNC4)cc3c2C(C)C)ccn1 (stereo not drawn) [Example 185],8.72,7.74,5.91
Cc1cc(-c2[nH]c3ccc(C4CCCNC4)cc3c2C(C)C)cc(C)n1 (stereo not drawn) [Example 186],8.44,8.40,6.55
Cc1c(-c2[nH]c3ccc(C4CCCNC4)cc3c2C(C)C)ccc2ncnn12 (stereo not drawn) [Example 188],7.18,6.79,5.15
Cc1c(-c2[nH]c3ccc(C4CCCNC4)cc3c2C(C)C)cn2ncnc2c1C (stereo not drawn) [Example 189],9.64,9.47,5.99
Cc1c(-c2[nH]c3ccc(C4CCCNC4)cc3c2C(C)C)cn2ncnc2c1C (stereo not drawn) [Example 190],9.46,9.37,6.07
COc1cc(-c2[nH]c3ccc(C4CCCN(C(=O)CN(C)C)C4)cc3c2C(C)C)cn2ncnc12 (stereo not drawn) [Example 191],8.59,9.47,5.73
COc1cc(-c2[nH]c3ccc(C4CCCN(C(=O)CN(C)C)C4)cc3c2C(C)C)cn2ncnc12 (stereo not drawn) [Example 192],8.23,9.31,5.55
Cc1c(-c2[nH]c3ccc(C4CCCN(C(=O)CN(C)C)C4)cc3c2C(C)C)cn2ncnc2c1C (stereo not drawn) [Example 193],8.54,9.00,5.19
COc1cc(-c2[nH]c3ccc(C4CCCN(C(=O)C5CCN(C)CC5)C4)cc3c2C(C)C)cn2ncnc12 (stereo not drawn) [Example 194],7.64,8.22,4.92
COc1ccc(-c2[nH]c3ccc(C4CCCN(C(=O)CN(C)C)C4)cc3c2C(C)C)cc1OC (stereo not drawn) [Example 195],7.37,7.70,5.66
Cc1cc(-c2[nH]c3ccc(C4CCCN(C(=O)C5C(C)(C)C5(C)C)C4)cc3c2C(C)C)cc(C)n1 (stereo not drawn) [Example 198],5.96,6.42,4.62
Cc1cc(-c2[nH]c3ccc(C4CCCN(C(=O)C5C(C)(C)C5(C)C)C4)cc3c2C(C)C)cc(C)n1 (stereo not drawn) [Example 200],6.61,7.40,4.58

# Results, then the compound that gave them:
pIC50 (human TLR8),pIC50 (human TLR7),pIC50 (human TLR9),Structure (SMILES)
8.41,8.70,6.56,Cc1cc(-c2[nH]c3ccc(C4CCCNC4)cc3c2C(C)C)cc(C)n1 (stereo not drawn) [Example 187]
7.08,7.80,4.50,Cc1cc(-c2[nH]c3ccc(C4CCCN(C(=O)CN5CCOCC5)C4)cc3c2C(C)C)cc(C)n1 (stereo not drawn) [Example 196]
7.80,8.70,4.35,Cc1cc(-c2[nH]c3ccc(C4CCCN(C(=O)CN5CCOCC5)C4)cc3c2C(C)C)cc(C)n1 (stereo not drawn) [Example 197]
6.37,7.05,4.43,Cc1cc(-c2[nH]c3ccc(C4CCCN(C(=O)C5(C)CC5)C4)cc3c2C(C)C)cc(C)n1 (stereo not drawn) [Example 199]
6.96,8.15,4.72,Cc1cc(-c2[nH]c3ccc(C4CCCN(C(=O)C5(N)CC5)C4)cc3c2C(C)C)cc(C)n1 (stereo not drawn) [Example 201]
7.46,8.40,4.91,Cc1cc(-c2[nH]c3ccc(C4CCCN(C(=O)C5(C)CC5)C4)cc3c2C(C)C)cc(C)n1 (stereo not drawn) [Example 202]
6.46,7.25,4.36,Cc1cc(-c2[nH]c3ccc(C4CCCN(C(=O)C5(C)COC5)C4)cc3c2C(C)C)cc(C)n1 (stereo not drawn) [Example 203]
7.26,8.40,< 4.30,Cc1cc(-c2[nH]c3ccc(C4CCCN(C(=O)C5(C)COC5)C4)cc3c2C(C)C)cc(C)n1 (stereo not drawn) [Example 204]
6.40,6.92,< 4.30,COCC(=O)N1CCCC(c2ccc3[nH]c(-c4cc(C)nc(C)c4)c(C(C)C)c3c2)C1 (stereo not drawn) [Example 205]
